In patent USRE38970E1, “Indolyl or indolinyl derivatives and medicinal use thereof as ACAT or lipid peroxidation inhibitors” (Kyoto Pharmaceutical Industries, Ltd., priority 1995, dated 2006):
≈ marks a conversion by molar mass, not a printed value.

Columns and labels:
ACAT = ACAT inhibitory activity (cholesteryl oleate production by small intestine mucosal microsomes); type: biochemical, Japanese white rabbits; details: rabbit small intestine mucosal microsomes, [1-14C] oleoyl CoA, 37° C. 7 minutes, vs control; test concentration not given
serum total cholesterol = test: Serum total cholesterol reducing effect in rats on high cholesterol feed; type: in vivo; details: male Wister rats, vs control
Procedure: Mile Wister rats weighing 180-200 g were bred under free access to a high cholesterol feed [added with cholesterol (1%), cholic acid (0.5%) and coconut oil (10%), Clea Japan, Inc.] for 3 days, during which period a test compound (3 mg/kg and 10 mg/kg) suspended in 5% gum arabic solution was forcibly administered once a day orally for 3 days. Only 5% gum arabic solution was administered to control animals. After final administration, the test animals were fasted and blood was taken 5 hours later. The serum total cholesterol level was determined using a commercially available assay lit (cholesterol-CII-Test Wako, Wako Pure Chemical Industries, Ltd.).

plasma lipoperoxidation [1] = test: In vitro plasma lipoperoxidation inhibitory activity (malondialdehyde production); type: biochemical, Wister rats; details: rat heparinized plasma, test compound final concentration 10^-5M, copper sulfate, malondialdehyde production vs control
Procedure: Under ether anesthesia, blood was taken from male Wister rats weighing 160-190 g that had been fasted for 16 hours, and heparinized plasma was separated by conventional method. DMSO (10 μl) or a test compound (final concentration 10^−5M) dissolved in DMSO (test compound solution 10 μl) was added to plasma (1.0 ml), and the mixture was incubated at 37° C. for 5 minutes.

[2] = Oral administration, plasma concentration in Wister rats; details: 30 mg/kg orally, fasted male Wister rats, sampled 0.5-6 hours
Procedure: (§1) At 0.5, 1, 2, 4 and 6 hours after administration, blood was taken and heparinized plasma was separated by conventional method.

[3] = Oral administration, plasma concentration in SD rats; details: 30 mg/kg orally, fasted male SD rats, sampled 0.5-6 hours
Procedure: as §1

[4] = Solubility in buffer pH 6.8; details: for Solubility: buffer pH 6.8, shaken 1 hr at 25° C., HPLC; for solubility at 1 h: buffer pH 6.8, 25 °C, pH 6.8, aqueous buffer, thermodynamic from solid
Procedure: A pulverized test compound (10 mg) was added to buffer (1 ml, pH 6.8), and the mixture was shaken for 1 br at 25° C.

plasma lipoperoxidation [5] = test: Ex vivo plasma lipoperoxidation inhibitory activity after oral administration; type: in vivo; details: male Wister rats, plasma taken 1 hour after administration
Procedure: Under ether anesthesia, blood was taken from male Wister rats weighing 160-190 g that had been fasted for 16 hours, and heparinized plasma was separated by conventional method.
Only 5% gum arabic solution was administered to control animals. At 1 hour after administration, blood was taken under ether anesthesia and heparinized plasma was separated by conventional method. The plasma (1.0 ml) was processed in the same manner as in Experimental Example 3 and the amount of produced malondialdehyde was determined.

[6] = 3 mg/kg/day orally once a day for 3 days
[7] = 10 mg/kg/day orally once a day for 3 days

Row | SMILES | ACAT inhibition (%) (ACAT) | Reduction (%) of serum total cholesterol (serum total cholesterol; [6]) | Reduction (%) of serum total cholesterol (serum total cholesterol; [7]) | Inhibition (%) of plasma lipoperoxidation (plasma lipoperoxidation [1]) | also measured
1 | CCCCSCCCN1CCc2c(C)c(CC(=O)O)c(C)c(NC(=O)C(C)(C)C)c21 [Example 122] | 92.0% | 88.2% | 50.0% |  | 
2 | CCCCCCCCN1CCc2c(C)c(CC(=O)OCC)c(C)c(NC(=O)C(C)(C)C)c21 [Example 3, N-(1-octyl-5-ethoxycarbonylmethyl-4,6-dimethylindolin-7-yl)-2,2-dimethylpropanamide] | 92.5% | 54.2% | 61.2% | 49.2% | 
3 | CCCCCCCCCN1CCc2c(C)c(CC(=O)O)c(C)c(NC(=O)C(C)(C)C)c21 [Example 36] |  |  |  |  | Highest concentration in plasma [2]: 2.2 µg/mL; Highest concentration in plasma [3]: 12.2 µg/mL; Solubility [4]: 4200 µg/mL (≈ 9.75 mM)
4 | CCCCCCCCN1CCCc2c(C)c(CC(=O)O)c(C)c(NC(=O)C(C)(C)C)c21 [Example 125, N-(1-octyl-6-carboxymethyl-5,7-dimethyl-1,2,3,4-tetrahydroquinolin-8-yl)-2,2-dimethylpropanamide] | 93.0% | 30.2% | 47.9% | 48.0% | 
5 | CCCCSCCCCCCN1CCc2c(C)c(CC(=O)O)c(C)c(NC(=O)C(C)(C)C)c21 [Example 121] | 92.5% | 87.8% | 48.1% | 41.6% | 
6 | CCCCCCCCN1CCc2c(C)c(CO)c(C)c(NC(=O)C(C)(C)C)c21 [Example 1, N-(1-octyl-5-hydroxymethyl-4,6-dimethylindolin-7-yl)-2,2-dimethylpropanamide] | 99.2% | 52.8% | 57.1% | 51.7% | 
7 | CCCCCCCCN1CCc2cc(CO)c(C)c(NC(=O)C(C)(C)C)c21 [Example 76] | 94.7% |  |  | 51.7% | 
8 | CCCCCCCCN1CCc2cc(CN(C)C)c(C)c(NC(=O)C(C)(C)C)c21 [Example 81] |  | 31.7% | 53.8% | 47.1% | 
9 | CCCCCCCCN1CC(CCC(=O)O)c2c(C)cc(C)c(NC(=O)C(C)(C)C)c21 (stereo not shown) [Example 11, N-[(1-octyl-3-(2-carboxyethyl)-4,6-dimethylindolin-7-yl)]-2,2-dimethylpropanamide] |  |  |  | 44.5% | 
10 | CCCCCCCCN1CCc2c(C)c(CC(=O)O)c(C)c(NC(=O)C(C)(C)C)c21 [Example 4, N-(1-octyl-5-carboxymethyl-4,6-dimethylindolin-7-yl)-2,2-dimethylpropanamide] |  | 58.8% | 57.5% | 51.2% | Highest concentration in plasma [2]: 1.4 µg/mL; Highest concentration in plasma [3]: 13.6 µg/mL; Inhibition (%) of plasma lipoperoxidation (plasma lipoperoxidation [5]; 10 mg/kg orally): 39.0%; solubility at 1 h [4]: 6900 µg/mL (≈ 16.6 mM)
11 | CCCCCCCCN1CCc2cc(CC(=O)O)c(C)c(NC(=O)C(C)(C)C)c21 [Example 116] | 92.0% | 26.5% | 50.9% | 45.5% | 
12 | CCCCCCCCN1CCc2c(C)c(C(=O)O)c(C)c(NC(=O)C(C)(C)C)c21 [Example 159] |  | 53.8% | 57.5% | 48.3% | 
13 | CC(C)(Sc1cc(C(C)(C)C)c(O)c(C(C)(C)C)c1)Sc1cc(C(C)(C)C)c(O)c(C(C)(C)C)c1 [Probucol, 4,4-isopropylidenedithiobis(2,6-di-t-butylphenol), reference compound] |  |  |  |  | Inhibition (%) of plasma lipoperoxidation (plasma lipoperoxidation [5]; 100 mg/kg orally): 15.4%
14 | CCCCCCCCN1CCc2cc(C(=O)O)c(C)c(NC(=O)C(C)(C)C)c21 [Example 155, N-(1-octyl-5carboxy-6-methylindolin-7-yl)-2,2-dimethylpropanamide] |  | 55.2% | 58.5% | 47.7% | 
15 | Cc1cc(C)c(NC(=O)N(Cc2ccc3c(c2)Cc2ccccc2-3)C2CCCCCC2)c(C)c1 [YM-750, 1-cycloheptyl-1-[(2-fluorenyl)methyl]-3-(2,4,6-trimethyl-phenyl) urea, reference compound] | 92.0% | 37.7% | 46.4% |  | solubility at 1 h [4]: < 10 µg/mL
16 | CCCCCCN1CCc2c(C)c(CC(=O)O)c(C)c(NC(=O)C(C)(C)C)c21 [Example 18] |  |  |  |  | Solubility [4]: 7300 µg/mL (≈ 18.8 mM)
17 | CCCCCCCCN1CCc2c(C)c(CCC(=O)O)c(C)c(NC(=O)C(C)(C)C)c21 [Example 120, N-(1-octyl-5-carboxyethyl-4,6-dimethylindolin-7-yl)-2,2-dimethylpropanamide] | 92.3% | 45.8% | 44.6% |  | 
18 | CCCCCCCCN1CCc2cc(CC(=O)O)c(C)c(NC(=O)C(C)(C)C)c21 [Example 71] |  | 26.5% | 52.3% | 48.1% | Solubility [4]: 100 µg/mL (≈ 0.248 mM)
